Laboratory results as given in paper PMC9576799, “Discovery of small molecule inhibitors that effectively disrupt IQGAP1-Cdc42 interaction in breast cancer cells” (Scientific Reports, 2022).
pEC50, pIC50: −log10 of the molar value.

Test system: control MCF7 cells
Assay: CellTiter-Glo cell viability assay, control MCF7
Type: cell-based, human
Settings: 72 h
Experimental: Selected hit compounds were tested in CellTiterGlo cell viability assays to determine their cytotoxic effect on IQGAP1 knockout and control MCF7 cells. Prior to the assay, we assessed cell proliferation to keep both cell lines at similar exponential growth rates within 80 h after plating. For this purpose, the cells were plated onto 384-well clear bottom black plates (Perkin Elmer, Ultra) at various cell densities (between 625 and 10,000 cells/50µL/well), spun down for 15 s, and placed into Incucyte SX5 (Essen BioScience) for automated bright-field channel reading every 4 h. […] For the cytotoxicity assays, cells were harvested with 0.05% trypsin, spun down at 125xg for 5 min, re-suspended in fresh DMEM supplemented with 5% (v/v) FBS, and seeded into 1536-well white solid bottom tissue culture-treated plates (Greiner One, #789173-F) at 600 cells/5µL/well for knockout cells and 300 cells/5µL/well for control cells using a Multidrop Combi dispenser (Thermo Fisher Scientific Inc.). One column on each plate was dispensed with growth medium only (no cells) to gauge the maximal potential cytotoxic effect (IC100 control). The plates were kept in a tissue culture incubator at 37 °C with 5% CO2 for ~ 20 h for attachment and recovery of the cells. The next day, selected compounds were pin-transferred into the wells in columns 5–48, 23nL/well at 7-point 1:3 serial dilution, in the range of 46 µM to 78 nM final assay concentration. DMSO was used as the vehicle control (IC0). The plates were covered with stainless steel cell culture Kalypsys lids and incubated at 37 °C with 5% CO2 under 95% humidity for 72 h.
Plates and reagents were equilibrated to room temperature and then 5 µL/well of CellTiter Glo (Promega, #G7570) reagent was dispensed with a Multidrop Combi dispenser to the assay plates. After incubation for 10 min at ambient temperature, the luminescence signal was read with a ViewLux instrument (Perkin Elmer) with one second exposure. Relative luminescent units (RLU) for each well were normalized to the median RLUs from DMSO control wells as […] and “no cells” control wells as 100% viability.

Compound | cytotoxicity efficacy | pEC50 (read-out: cytotoxicity EC50) | pIC50 (Homo sapiens, read-out: cytotoxicity EC50) | Emax (Homo sapiens, read-out: cytotoxicity efficacy)
CCN(CC)CCn1c2ccccc2c2nc3ccc([N+](=O)[O-])cc3cc21 [MLS000332963] | 47% | 4.70 | – | –
Cc1cccc(NC(=O)c2c(NC(=O)C(F)(F)F)sc3c2CCCCC3)c1 [NCGC00098561] | – | – | 5.65 | ~100%
